Assay results reported in patent publication US11091447B2, “UBE2K modulators and methods for their use” (Berg LLC, priority 2020, dated 2021).
Blank lines part the entries; values can stand above or below the compound they belong to.

Legend:
[1] = system: MV.4.11 cell (B myelomonocytic leukemia) line derived xenograft; experiment: Anti-tumor efficacy in MV.4.11 cell line derived xenograft model; assay type: in vivo; settings: MV.4.11 xenograft, nude mice
Protocol: Nude mice were implanted with 5×10^6 cells MV.4.11 cells subcutaneously in the right flank region. Mice were randomized into 3 groups (8 mice each) on day 12 post cells implantation. Vehicle control was administered with formulation of test compound and treatment group was administered with compound 131 at doses 75 and 150 mg/kg orally as a suspension in 0.1% Tween-80+0.5% CMC (carboxymethyl cellulose) twice daily (b.i.d) for 24 days. Tumor measurements and body weight were recorded thrice weekly during the study period till study completion (day 24).

[2] = system: MIA PaCa-2 cells; experiment: Cellular viability assay (Cell Titer Fluor); assay type: cell-based; settings: Homo sapiens, MIA PaCa-2, 72 h, 72 hours incubation
Protocol: Cell viability were performed using the Cell Titer Fluor™ Assays (Promega G6080). MIA PaCa-2 cells are grown in DMEM media with 10% FBS, 1% Pen/Strep/Amphotericin B. Cells are trypsinized and counted using the Nexcelom cellometer. 5,000 cells/100 μl are plated per well in Greiner black/clear 96-well plates. Cells should be within 10 passages of stock vial for use in workflow. Three distinct lineages of these cells are cultured in parallel for multiple passages and 5 full plates of each lineage are seeded for one run. Small molecule compounds are provided as 100 mM stock solutions in DMSO. Dilution series plates are prepared using 1:3 dilution to achieve a 7 point concentration on a half log scale. After addition of compounds, cells are incubated 37° C., 5% CO2 for 72 hours.
For each test compound condition, triplicate technical replicates are used. For each reference compound, duplicate technical replicates are used. At the end of the 72-hour incubation, spent media is discarded. Then, 100 μl of GF-AFC diluted in DMEM (serum and phenol red-free) is added at 1:2000 concentration (5 μl/10 ml). Cells are incubated with reaction buffer for 1 h at 37° C. Fluorescence is then read on the plate reader with excitation wavelength of 390 nm and emission wavelength of 505 nm. All raw data are analyzed on Microsoft Excel 2010 and normalized to the DMSO vehicle control. Relative results are copied into GraphPad Prism for non-linear regression analysis and determination of IC50 and other dose curve parameters (min, max, Hill slope, etc.) using the log (inhibitor) vs. response equation. Values are as follows: A represents an IC50 of <[…], B represents an IC50 of 1 mM to 10 mM, C represents an IC50 of >10 mM.

[3] = system: K-562 tumor grafts; experiment: Tumor growth inhibition in K-562 murine xenograft model; assay type: in vivo, Mouse (Mus musculus); settings: bid., p.o., K-562 xenograft, SCID Bg mice
Protocol: K-562 cancer cell line sourced from American Type Culture Collection (ATCC), USA. Cells were grown in IMDM medium (Sigma, Cat #30-2005) supplemented with 10% FBS (Invitrogen, Cat #10438-026), and 1% penicillin streptomycin (Invitrogen, Cat #15140-122). To establish xenograft, the cells were harvested by trypsinization when they reach around 70 to 80% confluence and 5 million K-562 cells were suspended in 200 μL of serum-free medium and mixed at 1:1 ratio with matrigel before implanting subcutaneously into the dorsal right flank of SCID Bg mice using a 1 mL BD syringe attached to a 24-gauge needle.
K-562 tumor grafts were measured after 10 days of cell inoculation once they became palpable. When the average tumor volume reached around 85 mm^3, animals were dosed after randomization into different treatment groups keeping tumor volume and number of animals in such a way so that the average tumor volume of each group remained same across the groups.
Compounds were formulated in 0.5% CMC+0.1% Tween 80 and given for 12 consecutive days BID with 8 hour gaps.

IC50 [2]: < 1000 nM
Structure (SMILES): COc1ccc(F)cc1-c1nc(CNC(=O)c2cccc3c2OC(F)(F)O3)n[nH]1 [Compound 131]
tumor growth inhibition ([1]; 75 mg/kg orally twice daily (b.i.d) for 24 days): 73.6%
tumor growth inhibition ([1]; 150 mg/kg orally twice daily (b.i.d) for 24 days): 86.3%

IC50 [2]: < 1000 nM
Structure (SMILES): COc1ccc(F)cc1-c1nc(CNC(=O)c2cc(F)ccc2OC(F)(F)F)n[nH]1 [Compound 133]
% Tumor Growth Inhibition (TGI) on day 3 ([3]; 25 mg/kg/dose): 43%
% Tumor Growth Inhibition (TGI) on day 5 ([3]; 25 mg/kg/dose): 37%
% Tumor Growth Inhibition (TGI) on day 8 ([3]; 25 mg/kg/dose): 48%
% Tumor Growth Inhibition (TGI) on day 10 ([3]; 25 mg/kg/dose): 45%
% Tumor Growth Inhibition (TGI) on day 12 ([3]; 25 mg/kg/dose): 43%
% Tumor Growth Inhibition (TGI) on day 3 ([3]; 75 mg/kg/dose): 47%
% Tumor Growth Inhibition (TGI) on day 5 ([3]; 75 mg/kg/dose): 56%
% Tumor Growth Inhibition (TGI) on day 8 ([3]; 75 mg/kg/dose): 61%
% Tumor Growth Inhibition (TGI) on day 10 ([3]; 75 mg/kg/dose): 60%
% Tumor Growth Inhibition (TGI) on day 12 ([3]; 75 mg/kg/dose): 64%
